In patent publication US11180504B2 (ORCHID PHARMA LTD., priority 2016, dated 2021) one finds MIC data, which are given here for 19 compounds.

Assay [1] deals with methicillin-sensitive Staphylococcus aureus. Kind of assay: MIC by broth micro-dilution (CLSI), methicillin-sensitive S. aureus. The class given is cell-based. The following applies: MSSA S. aureus ATCC29213. (In general: Dilution methods test growth across graded concentrations, often in twofold steps.)
Assay [2] deals with carbapenem sensitive Escherichia coli. As to the kind of experiment: MIC by broth micro-dilution (CLSI), carbapenem sensitive E. coli. The class given is cell-based.
For assay [3], the system named is carbapenemase producing K. pneumoniae. Kind of assay: MIC by broth micro-dilution (CLSI), carbapenemase producing K. pneumoniae. In kind it is cell-based, Klebsiella pneumoniae.
The subject of assay [4] is carbapenem sensitive Pseudomonas aeruginosa. As to the kind of experiment: MIC by broth micro-dilution (CLSI), carbapenem sensitive P. aeruginosa. In kind it is cell-based.
[5] abbreviates: Staphylococcus aureus, ATCC 29213 / MSSA, read-out: MIC.
The mark [6] stands for this setting: Escherichia coli, ATCC25922, ESBL −ve E. coli ATCC25922, read-out: MIC.
The mark [7] stands for this setting: Klebsiella pneumoniae, ATCCBAA1705, KPC-2 K. pneumoniae ATCC BAA-1705, read-out: MIC.
The mark [8] stands for this setting: Pseudomonas aeruginosa, ATCC27853, Meropenem susceptible P. aeruginosa ATCC27853, read-out: MIC.

≈ marks a conversion by molar mass, not a printed value. Where two headings read alike, the source gives them in different places.

A word on the MIC: it is the lowest concentration found to suppress growth.

`Cc1nnnn1CC(=O)N[C@H](C)[C@H]1C(=O)N2C(C(=O)O)=C(S[C@@H]3CN[C@H](C(=O)N(C)C)C3)[C@H](C)[C@H]12` [Example 330, (4R,5S,6R)-3-((3S,5S)-5-(dimethylcarbamoyl)pyrrolidin-3-ylthio)-4-methyl-6-((R) - 1-(2-(5-methyl-1H-tetrazol-1-yl)acetamido)ethyl)-7-oxo-1-azabicyclo[3.2.0]hept-2-ene-2-carboxylic acid]: the MIC stood at 8 µg/mL (≈ 15.8 µM) in assay [1] (setting [5]), 0.25 µg/mL (≈ 0.493 µM) in assay [2] (setting [6]), 2 µg/mL (≈ 3.95 µM) in assay [3] (setting [7]) and 64 µg/mL (≈ 126 µM) in assay [4] (setting [8]).

For the compound `CNCC(=O)N[C@H](C)[C@H]1C(=O)N2C(C(=O)O)=C(S[C@@H]3CN[C@H](C(=O)N4CC[C@H](N)C[C@@H]4C)C3)[C@H](C)[C@H]12` [Example 264], the MIC in assay [1] (setting [5]) is 16 µg/mL (≈ 30.6 µM); in assay [2] (setting [6]), 2 µg/mL (≈ 3.83 µM); in assay [3] (setting [7]), 4 µg/mL (≈ 7.65 µM); in assay [4] (setting [8]), 8 µg/mL (≈ 15.3 µM).

On to `C[C@@H](NC(=O)Cn1cnnn1)[C@H]1C(=O)N2C(C(=O)O)=C(S[C@@H]3CN[C@H](C(=O)N4CCC(C(=O)N5CCNCC5)CC4)C3)[C@H](C)[C@H]12` [Example 430, (4R,5S,6R)-6-((R)-1-(2-(1H-tetrazol-1-yl)acetamido)ethyl)-4-methyl-7-oxo-3-((3S,5S)-5-(4-(piperazine-1-carbonyl)piperidine-1-carbonyl)pyrrolidin-3-ylthio)-1-azabicyclo[3.2.0]hept-2-ene-2-carboxylic acid], for which the MIC in assay [1] (setting [5]) stood at 4 µg/mL (≈ 6.2 µM); in assay [2] (setting [6]) it was 0.5 µg/mL (≈ 0.775 µM); in assay [3] (setting [7]), 2 µg/mL (≈ 3.1 µM); in assay [4] (setting [8]), 4 µg/mL (≈ 6.2 µM).

Consider `C[C@@H](NC(=O)Cn1cnnn1)[C@H]1C(=O)N2C(C(=O)O)=C(S[C@@H]3CN[C@H](C(=N)N4CC[C@@H](N)C4)C3)[C@H](C)[C@H]12` [Example 550], for which the MIC is 1 µg/mL (≈ 1.88 µM) in assay [1] (Staphylococcus aureus, ATCC29213|MSSA, read-out: MIC); 0.25 µg/mL (≈ 0.469 µM) in assay [2] (setting [6]); 2 µg/mL (≈ 3.75 µM) in assay [3] (setting [7]); 8 µg/mL (≈ 15 µM) in assay [4] (setting [8]).

For `C[C@@H](NC(=O)Cn1nnnc1C(C)(C)C)[C@H]1C(=O)N2C(C(=O)O)=C(S[C@@H]3CN[C@H](C(=O)N4CC[C@@H](N)C4)C3)[C@H](C)[C@H]12` [Example 355, (4R,5S,6R)-3-((3S,5S)-5-((R)-3-aminopyrrolidine-1-carbonyl)pyrrolidin-3-ylthio)-6-((R)-1-(2-(5-tert-hutyl-1H-tetrazol-1-yl)acetamido)ethyl)-4-methyl-7-oxo-1-azabicyclo[3.2.0]hept-2-ene-2-carboxylic acid], the MIC in assay [1] (setting [5]) amounted to 4 µg/mL (≈ 6.78 µM); in assay [2] (setting [6]) it was 1 µg/mL (≈ 1.7 µM); in assay [3] (setting [7]), 16 µg/mL (≈ 27.1 µM); in assay [4] (setting [8]), 128 µg/mL (≈ 217 µM).

Regarding `C[C@@H](NC(=O)Cn1cnnn1)[C@H]1C(=O)N2C(C(=O)O)=C(S[C@@H]3CN[C@H](C(=O)N4CCC[C@@H]4CN)C3)[C@H](C)[C@H]12` [Example 465, (4R,5S,6R)-6-((R)-1-(2-(1H-tetrazol-1-yl)acetamido)ethyl)-3-((3S,5S)-5-((R)-2-(aminomethyl)pyrrolidine-1-carbonyl)pyrrolidin-3-ylthio)-4-methyl-7-oxo-1-azabicyclo[3.2.0]hept-2-ene-2-carboxylic acid], the MIC in assay [1] (setting [5]) was found to be 4 µg/mL (≈ 7.3 µM); in assay [2] (setting [6]) it was 0.5 µg/mL (≈ 0.913 µM); in assay [3] (setting [7]) it was 2 µg/mL (≈ 3.65 µM); in assay [4] (setting [8]) it was 16 µg/mL (≈ 29.2 µM).

Take `C[C@@H](NC(=O)Cn1cnnn1)[C@H]1C(=O)N2C(C(=O)O)=C(S[C@@H]3CN[C@H](C(=O)N4CCN(C)CC4)C3)[C@H](C)[C@H]12` [Example 359, (4R,5S,6R)-6-((R)-1-(2-(1H-tetrazol-1-yl)acetamido)ethyl)-4-methyl-3-((3S,5S)-5-(4-methylpiperazine-1-carbonyl)pyrrolidin-3-ylthio)-7-oxo-1-azabicyclo[3.2.0]hept-2-ene-2-carboxylic acid]: the MIC is 8 µg/mL (≈ 14.6 µM) in assay [1] (setting [5]), 0.5 µg/mL (≈ 0.913 µM) in assay [2] (setting [6]), 2 µg/mL (≈ 3.65 µM) in assay [3] (setting [7]) and 16 µg/mL (≈ 29.2 µM) in assay [4] (setting [8]).

For `C[C@@H](NC(=O)Cn1cnnn1)[C@H]1C(=O)N2C(C(=O)O)=C(S[C@@H]3CN[C@H](C(=O)N4CC[C@@H](NC(=O)CN)C4)C3)[C@H](C)[C@H]12` [Example 398, (4R,5S,6R)-6-((R)-1-(2-(1H-tetrazol-1-yl)acetamido)ethyl)-3-((3S,5S)-5-((R)-3-(2-aminoacetamido)pyrrolidine-1-carbonyl)pyrrolidin-3-ylthio)-4-methyl-7-oxo-1-azabicyclo[3.2.0]hept-2-ene-2-carboxylic acid], the MIC turned out to be 4 µg/mL (≈ 6.77 µM) in assay [1] (setting [5]), 0.25 µg/mL (≈ 0.423 µM) in assay [2] (setting [6]), 1 µg/mL (≈ 1.69 µM) in assay [3] (setting [7]) and 2 µg/mL (≈ 3.39 µM) in assay [4] (setting [8]).

With `C[C@@H](NC(=O)[C@@H]1CSCN1)[C@H]1C(=O)N2C(C(=O)O)=C(S[C@@H]3CN[C@H](C(=O)N(C)C)C3)[C@H](C)[C@H]12` [Example 270], the MIC was determined as 4 µg/mL (≈ 8.04 µM) in assay [1] (setting [5]), 1 µg/mL (≈ 2.01 µM) in assay [2] (setting [6]), 4 µg/mL (≈ 8.04 µM) in assay [3] (setting [7]) and 64 µg/mL (≈ 129 µM) in assay [4] (setting [8]).

On to `C[C@@H](NC(=O)Cn1cnnn1)[C@H]1C(=O)N2C(C(=O)O)=C(S[C@@H]3CN[C@H](C(=O)N4C[C@H](N)C[C@H]4C(=O)O)C3)[C@H](C)[C@H]12` [Example 453, (4R,5S,6R)-6-((R)-1-(2-(1H-tetrazol-1-yl)acetamido)ethyl)-3-((3S,5S)-5-((2S,4R)-4-amino-2-carboxypyrrolidine-1-carbonyl)pyrrolidin-3-ylthio)-4-methyl-7-oxo-1-azabicyclo[3.2.0]hept-2-ene-2-carboxylic acid], for which the MIC in assay [1] (setting [5]) was found to be 16 µg/mL (≈ 27.7 µM); in assay [2] (setting [6]) it was 0.125 µg/mL (≈ 0.216 µM); in assay [3] (setting [7]), 2 µg/mL (≈ 3.46 µM); in assay [4] (setting [8]) it was 8 µg/mL (≈ 13.8 µM).

In the case of `C[C@@H](NC(=O)[C@@H]1CSCN1)[C@H]1C(=O)N2C(C(=O)O)=C(S[C@@H]3CN[C@H](C(=O)N4CC[C@@H](N)C4)C3)[C@H](C)[C@H]12` [Example 271], the MIC in assay [1] (setting [5]) came to 2 µg/mL (≈ 3.71 µM); in assay [2] (setting [6]) it was 1 µg/mL (≈ 1.86 µM); in assay [3] (setting [7]), 4 µg/mL (≈ 7.43 µM); in assay [4] (setting [8]), 8 µg/mL (≈ 14.9 µM).

With `COc1nnnn1CC(=O)N[C@H](C)[C@H]1C(=O)N2C(C(=O)O)=C(S[C@@H]3CN[C@H](C(=O)N4CC[C@@H](N)C4)C3)[C@H](C)[C@H]12` [Example 386, (4R,5S,6R)-3-((3S,5S)-5-((R)-3-aminopyrrolidine-1-carbooyl)pyrrolidin-3-ylthio)-6-((R)-1-(2-(5-methoxy-1H-tetrazol-1-yl)acetamido)ethyl)-4-methyl-7-oxo-1-azabicyclo[3.2.0]hept-2-ene-2-carboxylic acid], the MIC in assay [1] (setting [5]) turned out to be 2 µg/mL (≈ 3.55 µM); in assay [2] (setting [6]), 0.125 µg/mL (≈ 0.222 µM); in assay [3] (setting [7]) it was 8 µg/mL (≈ 14.2 µM); in assay [4] (setting [8]), 8 µg/mL (≈ 14.2 µM).

With `C[C@@H](NC(=O)C(F)F)[C@H]1C(=O)N2C(C(=O)O)=C(S[C@@H]3CN[C@H](CNC(=O)[C@@H]4CC[C@H](N)C4)C3)[C@H](C)[C@H]12` [Example 260], the MIC in assay [1] (setting [5]) is 1 µg/mL (≈ 1.89 µM); in assay [2] (setting [6]), 4 µg/mL (≈ 7.55 µM); in assay [3] (setting [7]), 8 µg/mL (≈ 15.1 µM); in assay [4] (setting [8]), 32 µg/mL (≈ 60.4 µM).

With `C[C@@H](NC(=O)Cn1cnnn1)[C@H]1C(=O)N2C(C(=O)O)=C(S[C@@H]3CN[C@H](C(=O)N4CCC(N)(CO)C4)C3)[C@H](C)[C@H]12` (single isomer, unassigned) [Example 496], the MIC in assay [1] (setting [5]) stood at 2 µg/mL (≈ 3.55 µM); in assay [2] (setting [6]) it was 0.25 µg/mL (≈ 0.444 µM); in assay [3] (setting [7]), 2 µg/mL (≈ 3.55 µM); in assay [4] (setting [8]), 2 µg/mL (≈ 3.55 µM).

For `C[C@@H](NC(=O)Cn1cnnn1)[C@H]1C(=O)N2C(C(=O)O)=C(SC3CN(S(N)(=O)=O)C3)[C@H](C)[C@H]12` [Example 376, (4R,5S,6R)-6-((R)-1-(2-(1H-tetrazol-1-yl)acetamido)ethyl)-4-methyl-7-oxo-3-(1-sulfamoylazetidin-3-ylthio)-1-azabicyclo[3.2.0]hept-2-ene-2-carboxylic acid], the MIC in assay [1] (setting [5]) was 8 µg/mL (≈ 16.4 µM); in assay [2] (setting [6]), 0.25 µg/mL (≈ 0.514 µM); in assay [3] (setting [7]) it was 16 µg/mL (≈ 32.9 µM); in assay [4] (setting [8]), more than 128 µg/mL.

For `CNCC(=O)N[C@H](C)[C@H]1C(=O)N2C(C(=O)O)=C(SC[C@@H]3C[C@H](NS(N)(=O)=O)CN3)[C@H](C)[C@H]12` [Example 269], the MIC in assay [1] (setting [5]) worked out at 16 µg/mL (≈ 32.6 µM); in assay [2] (setting [6]), 4 µg/mL (≈ 8.15 µM); in assay [3] (setting [7]), 4 µg/mL (≈ 8.15 µM); in assay [4] (setting [8]), 128 µg/mL (≈ 261 µM).

With `C[C@H]([C@H]1C(=O)N2C(C(=O)O)=C(S[C@@H]3CN[C@H](C(=O)N(C)C)C3)[C@H](C)[C@H]12)n1ncnn1` [Example 313, (4R,5S,6S)-6-((R) - 1-(2H-tetrazol-2-yl)ethyl)-3-((3S,5S)-5-(dimethylcarbamoyl)pyrrolidin-3-ylthio)-4-methyl-7-oxo-1-azabicyclo[3.2.0]hept-2-ene-2-carboxylic acid], the MIC in assay [1] (setting [5]) is 4 µg/mL (≈ 9.18 µM); in assay [2] (setting [6]), 1 µg/mL (≈ 2.3 µM); in assay [3] (setting [7]), 16 µg/mL (≈ 36.7 µM); in assay [4] (setting [8]) it was more than 128 µg/mL.

For `C[C@@H](NC(=O)c1cnccn1)[C@H]1C(=O)N2C(C(=O)O)=C(S[C@@H]3CN[C@H](C(=O)N(C)C)C3)[C@H](C)[C@H]12` [Example 303, (4R,5S,6R)-3-((3S,5S)-5-(dimethylcarbamoyl)pyrrolidin-3-ylthio)-4-methyl-7-oxo-6-((R) - 1-(pyrazine-2-carboxamido)ethyl) - 1-azabicyclo[3.2.0]hept-2-ene-2-carboxylic acid], the MIC in assay [1] (setting [5]) is 2 µg/mL (≈ 4.09 µM); in assay [2] (setting [6]) it was 4 µg/mL (≈ 8.19 µM); in assay [3] (setting [7]), 64 µg/mL (≈ 131 µM); in assay [4] (setting [8]) it was more than 128 µg/mL.

As to `C[C@@H](NC(=O)Cn1cnnn1)[C@H]1C(=O)N2C(C(=O)O)=C(S[C@@H]3CN[C@H](C(=O)N4CCC(N)(CO)C4)C3)[C@H](C)[C@H]12` (single isomer, unassigned) [Example 497], the MIC in assay [1] came out at 4 µg/mL (≈ 7.1 µM); in assay [2] (ESBL −ve E. coli ATCC25922), 0.25 µg/mL (≈ 0.444 µM); in assay [3] (KPC-2 K. pneumoniae ATCC BAA-1705), 2 µg/mL (≈ 3.55 µM); in assay [4] (Meropenem susceptible P. aeruginosa ATCC27853) it was 4 µg/mL (≈ 7.1 µM).
